From article PMC8907375, “Arylated analogues of cypronazole: fungicidal effect and activity on human fibroblasts. Docking analysis and molecular dynamics simulations” (Natural Products and Bioprospecting, 2022)
Converted amounts (≈) assume the structure as drawn. Where two headings read alike, the source gives them in different places.

How the values were obtained:
A. niger (ATCC 9029) = assay: In vitro antifungal activity, broth microdilution (MIC100); type: cell-based, Aspergillus niger; details: 48 h, total growth inhibition; for MIC100 (complete growth inhibition): Aspergillus niger, ATCC9029, 30 °C, read-out: Fungicidal activity MIC100, AN; for Fungicidal activity MIC100, AN: 30 °C
Protocol: (§1) Fungal growth was assessed at six concentrations (3.1–100 μg/mL), using enriched Czapek broth in the presence of triazole 1-8 (Fig. 2). Each treatment was carried out in triplicate. The Minimum Inhibitory Concentration (MIC100) was determined and was defined as the minimum concentration required to inhibit the complete fungal growth inhibition under the conditions of the assay. Triadimefon (TDM) and cyproconazole (CPZ) were used as positive control. In order to evaluate the efficacy of the new compounds to control fungi affecting vineyards, imperfect fungi isolated from infected grapes from the province of San Juan in Argentina were employed. Significant differences were determined by t-Student hypothesis test p, at 95% confidence. In general, moderate to good activity was observed compared to the reference compounds as well as some selectivity against microorganisms.
(§2) The imperfect fungi used for the assays included Botrytis cinerea isolated from grapevine samples, Aspergillus fumigatus (ATTC 26934), A. niger (ATCC 9029), A. ustus (PN-S4), A. japonicus (M15C), A. terreus (M16C) and Fusarium oxysporum (M15-Pa) isolated from soil samples from the province of San Juan, Argentina. The microorganisms were grown on Czapek-yeast extract agar (CYA) prepared with yeast extract, K2HPO4, saccharose, agar, distilled water and enriched with a solution of mineral salts (NaNO3, KCl, MgSO4.7H2O and FeSO4.7 H2O). Inocula were adjusted to 1–5 × 10^4 colony forming units (CFU/ mL).
(§3) The minimum inhibitory concentration (MIC) of each compound was evaluated using broth microdilution techniques in 96-well microtiter plates according to the guidelines of the National Committee for Clinical Laboratory Standards for filamentous fungi M 38 A. The starting inoculum was 1–5 × 10^4 CFU/mL in accordance with the Clinical and Laboratory Standards Institute (CLSI, formerly the National Committee for Clinical Laboratory Standards [NCCLS]) (M27-A3 document for yeasts, and M38-A2 document for filamentous fungi).
(§4) Microtiter plates were incubated at 30 °C for Aspergillus and Fusarium, and 22 °C for B. cinerea in a moist and dark chamber. MIC values were recorded after 48 h for Aspergillus and Fusarium spp., and after 72 h for B. cinerea, according to the fungal growth control. TDM and CPZ were used as positive controls (12.5–50 μg/mL). Stock solutions were two-fold diluted with RPMI from 1000 to 0.98 μg/mL (final volume equal to 100 μL), and a final DMSO concentration ≤ 1%. An inoculum suspension (100 μL) was added to each well with the exception of the sterility control. Endpoints were defined as the lowest compound concentration resulting in total growth inhibition (MIC100) compared to the growth in control wells. MICs values ≤ 50 μg/mL were considered of interest. The assay was carried out in triplicate.

[1] = Cytotoxicity, neutral red uptake assay; type: cell-based, human; details: human
Protocol: (§5) The cytotoxic effect of the compounds, expressed as cell viability, was assessed on a permanent fibroblast cell line derived from human lung (MRC-5) (ATCC CCL-171). MRC-5 fibroblasts were grown as monolayers in minimum essential Eagle medium (MEM) with Earle’s salts, 2 mM l-glutamine and 2.2 g/L sodium bicarbonate, supplemented with 10% heat inactivated fetal bovine serum (FBS), 100 IU/mL penicillin and 100 µg/mL streptomycin in a humidified incubator with 5% CO2 in the air at 37 °C. Cell passage was maintained between 10 and 16. The medium was changed every 2 days.
(§6) Confluent cultures of MRC-5 fibroblasts were treated with medium containing the compounds at concentrations ranging from 0 to 1000 µM. For comparison purposes, the commercial antifungals CPZ and TDM were used as references, the products were first dissolved in DMSO and then in MEM, supplemented with 2% FBS. The final content of DMSO in the test medium and controls was 1%. Cells were exposed for 24 h to the test medium with or without the compound (control). Each concentration was tested in quadruplicate together with the control, and repeated three times in separate experiments. At the end of the incubation, the neutral red uptake (NRU) assay was carried out. To calculate the IC50 values (concentration that produces a 50% inhibitory effect on the evaluated parameter), the results were transformed to percentage of controls and the IC50 values were graphically obtained from the dose–response curves.

A. terreus (M16C) = assay: In vitro antifungal activity, broth microdilution (MIC100); type: cell-based, Aspergillus terreus; details: 48 h; for MIC100 (complete growth inhibition): Aspergillus terreus, read-out: Fungicidal activity MIC100, AT, A. terreus, 30 °C, total growth inhibition
Protocol: as §1, §2, §3, §4

[2] = test system: B. cinerea (isolated from grapes); assay: as above; type: cell-based, Botrytis cinerea; details: for MIC100 (complete growth inhibition) / Fungicidal activity MIC100, BC: 22 °C, total growth inhibition
Protocol: as §1, §2, §3, §4

[3] = test system: Fusarium oxysporum (M15-Pa); assay: as above; type: cell-based; details: 30 °C, 48 h, total growth inhibition; for MIC100 (minimum concentration for complete growth inhibition): Fusarium oxysporum, F. oxysporum, read-out: Fungicidal activity MIC100, F
Protocol: as §1, §2, §3, §4

[4] = test system: Aspergillus fumigatus (ATTC 26934); assay: as above; type: cell-based; details: A. fumigatus, 30 °C, 48 h, total growth inhibition; for Minimum inhibitory concentration (MIC100): Aspergillus fumigatus, read-out: Fungicidal activity MIC100, AF
Protocol: as §1, §2, §3, §4

A. japonicus (M15C) = assay: as above; type: cell-based, Aspergillus japonicus; details: 48 h; for MIC: read-out: Fungicidal activity MIC100, AJ; for Fungicidal activity MIC100, AJ: A. japonicus, 30 °C, total growth inhibition
Protocol: as §1, §2, §3, §4

A. ustus (PN-S4) = assay: as above; type: cell-based, Aspergillus ustus; details: 30 °C, 48 h, total growth inhibition; for MIC100 (complete growth inhibition): Aspergillus ustus, read-out: Fungicidal activity MIC100, AU
Protocol: as §1, §2, §3, §4

[5] = test system: human lung fibroblasts MRC-5; assay: Cytotoxicity, neutral red uptake assay; type: cell-based
Protocol: as §5, §6

[6] = Botrytis cinerea, B. cinerea, 72 h, read-out: Fungicidal activity MIC100, BC
[7] = Botrytis cinerea, B. cinerea, molar conversion of the µg/mL value, read-out: MIC100 against B. cinerea expressed

Row | Structure (SMILES) | MIC100 (complete growth inhibition) (A. niger (ATCC 9029)) | IC50 at 24 h [1] | MIC100 (complete growth inhibition) (A. terreus (M16C)) | MIC100 (complete growth inhibition) [2, 6] | MIC100 (minimum concentration for complete growth inhibition) [3] | Minimum inhibitory concentration (MIC100) [4] | MIC (A. japonicus (M15C)) | MIC100 (complete growth inhibition) (A. ustus (PN-S4)) | IC50 at 24 h ([1]; MRC-5 fibroblasts, 24 h exposure, neutral red uptake, ± SD, read-out: Cytotoxicity IC50) | Fungicidal activity MIC100, BC ([2]; B. cinerea, 72 h) | MIC [2, 7] | Fungicidal activity MIC100, AF [4] | Fungicidal activity MIC100, AN (A. niger (ATCC 9029)) | Fungicidal activity MIC100, AU (A. ustus (PN-S4)) | MFC ([2]; Botrytis cinerea, 72 h, read-out: Fungicidal activity MIC100, BC) | MIC ([2]; Botrytis cinerea, read-out: MIC100 against B. cinerea expressed in µM) | Fungicidal activity MIC100, F [3] | Fungicidal activity MIC100, AJ (A. japonicus (M15C)) | IC50 [5] | Fungicidal activity MIC100, AT (A. terreus (M16C); A. terreus, 30 °C, total growth inhibition)
1 | CC(C)(C)C(=O)C(Oc1ccc(-c2ccc(F)cc2)cc1)n1cncn1 (centres unmarked) [Compound 2] | ≥ 100 µg/mL | 90 ± 4.3 µM | ≥ 100 µg/mL | ≥ 100 µg/mL | ≥ 100 µg/mL | ≥ 100 µg/mL | ≥ 100 µg/mL | ≥ 100 µg/mL |  |  |  |  |  |  |  |  |  |  |  | 
2 | CC(C)(C)C(=O)C(Oc1ccc(Cl)cc1)n1cncn1 (centres unmarked) [TDM, 1-(4-chlorofenoxy)-3,3-dimethyl-1-(1H-1,2,4-triazol-1-yl)butan-2-one, reference compound] | ≥ 100 µg/mL |  | > 100 µg/mL | 80 µg/mL (≈ 272 µM) | ≥ 100 µg/mL | 80 µg/mL (≈ 272 µM) | ≥ 100 µg/mL | 80 ± 2.6 µg/mL (≈ 272 µM) | 248 ± 12.4 µM | 80 ± 2.2 µg/mL | 274 µM (≈ 80.5 µg/mL) | 80 ± 2.4 µg/mL |  |  |  |  |  |  |  | 
3 | CC(C1CC1)C(O)(Cn1cncn1)c1ccc(-c2ccc([N+](=O)[O-])cc2)cc1 (centres unmarked) [Compound 6, 3-Cyclopropyl-2-(4'-nitro-[1,1'-biphenyl]-4-yl)-1-(1H-1,2,4-triazol-1-yl)butan-2-ol] | ≥ 100 µg/mL |  | ≥ 100 µg/mL | ≥ 100 µg/mL | ≥ 100 µg/mL | ≥ 100 µg/mL | ≥ 100 µg/mL | ≥ 100 µg/mL |  |  |  |  |  |  |  |  |  |  |  | 
4 | COc1ccc(-c2ccc(C(O)(Cn3cncn3)C(C)C3CC3)cc2)cc1 (centres unmarked) [Compound 5, 3-Cyclopropyl-2-(4'-methoxy-[1,1'-biphenyl]-4-yl)-1-(1H-1,2,4-triazol-1-yl)butan-2-ol] | 6.25 µg/mL (≈ 17.2 µM) | 732 ± 29.3 µM | ≥ 100 µg/mL | ≥ 100 µg/mL | ≥ 100 µg/mL | ≥ 100 µg/mL | ≥ 100 µg/mL | ≥ 100 µg/mL |  |  |  |  | 6.25 ± 0.4 µg/mL |  |  |  |  |  |  | 
5 | C[C@@H](c1ncncc1F)[C@](O)(Cn1cncn1)c1ccc(F)cc1F [VOR, voriconazole, reference compound] | 1.25 ± 0.4 µg/mL (≈ 3.58 µM) |  | 6.25 ± 0.8 µg/mL (≈ 17.9 µM) | < 0.75 µg/mL | < 0.75 µg/mL | < 0.75 µg/mL | < 0.75 µg/mL | 1.25 µg/mL (≈ 3.58 µM) |  |  |  |  |  | 1.25 ± 0.5 µg/mL |  |  |  |  |  | 
6 | CC(C)(C)C(=O)C(Oc1ccc(-c2ccccc2)cc1)n1cncn1 (centres unmarked) [Compound 1, 1-(Biphenyl-4-yloxy)-3,3-dimethyl-1-(1H-1,2,4-triazol-1-yl)butan-2-one] | 50 ± 1.7 µg/mL (≈ 149 µM) | 389 ± 23.5 µM | ≥ 100 µg/mL |  | ≥ 100 µg/mL | 80 ± 2.5 µg/mL (≈ 239 µM) | ≥ 100 µg/mL | 50 ± 1.2 µg/mL (≈ 149 µM) |  | 10 ± 0.7 µg/mL |  |  |  |  | 10 µg/mL (≈ 29.8 µM) | 29.8 µM (≈ 10 µg/mL) |  |  |  | 
7 | CC(C1CC1)C(O)(Cn1cncn1)c1ccc(-c2ccccc2)cc1 (centres unmarked) [Compound 3, 2-(Biphenyl-4-yl)-3-cyclopropyl-1-(1H-1,2,4-triazol-1-yl)butan-2-ol] | 3.12 µg/mL (≈ 9.36 µM) | 118 ± 9.4 µM | ≥ 100 µg/mL | 25 µg/mL (≈ 75 µM) | 5 µg/mL | ≥ 100 µg/mL | 12.5 µg/mL (≈ 37.5 µM) | 6.25 µg/mL (≈ 18.7 µM) |  | 25 ± 1.4 µg/mL | 75 µM (≈ 25 µg/mL) |  | 3.12 ± 0.3 µg/mL | 6.25 ± 0.3 µg/mL |  |  | 5 ± 0.4 µg/mL | 12.5 ± 0.8 µg/mL |  | 
8 | CC(C1CC1)C(O)(Cn1cncn1)c1ccc(-c2ccc3ccccc3c2)cc1 (centres unmarked) [Compound 7] | ≥ 100 µg/mL | 49.1 ± 3.4 µM | ≥ 100 µg/mL | ≥ 100 µg/mL | ≥ 100 µg/mL | ≥ 100 µg/mL | ≥ 100 µg/mL | 6.25 µg/mL (≈ 16.3 µM) |  |  |  |  |  | 6.25 ± 0.3 µg/mL |  |  |  |  |  | 
9 | c1nc[nH]n1 [Compound 8, 1H-1,2,4-Triazole] |  |  |  |  |  |  |  |  |  |  |  | ≥ 100 µg/mL | ≥ 100 µg/mL | ≥ 100 µg/mL |  |  | ≥ 100 µg/mL | ≥ 100 µg/mL | > 1000 µM | ≥ 100 µg/mL
